Here are results for 26 compounds from patent US20230286948A1 (HUYABIO International, LLC, priority 2022, published 2023).

The experiment addresses MLL1-WDR5 protein-protein interaction (Homo sapiens (Human), UniProt P61964). In words: WDR5 TR-FRET assay (MLL1-WDR5 PPI inhibition). The format is binding. The conditions noted are these: 5 nM WDR5 protein, 10 nM peptide, read-out: IC50 (nM), MLL1-WDR5 PPI inhibitory activity. The protocol: WDR5 TR-FRET Assay Procedure: Stock compounds were transferred to the assay plate by Echo Liquid Handler. […] Stock compounds were incubated with WDR5 protein for 30 min at room temperature. Plates were covered, protected from light and incubated for 60 min at room temperature, after adding the peptide and Tb-Ab. EnVision Multimode Plate Reader (PerkinElmer) was used for the TR-FRET assay with excitation wavelength at 340 nm and emission wavelength at 495 and 520 nm. The ratio of the 520/495 wavelengths were used to assess the degree of the FRET signal. IC50 was calculated by fitting the inhibition data using XLfit software to sigmoidal dose-response model.
For the compound `CN1CCN(c2ccc(-n3cc(C(=O)NCCCN4CCOCC4)nn3)cc2NC(=O)c2nnc(Cl)cc2Cl)CC1` [Example 32, 4,6-dichloro-N-(2-(4-methylpiperazin-1-yl)-5-(4-((3-morpholinopropyl)carbamoyl)-1H-1,2,3-triazol-1-yl)phenyl)pyridazine-3-carboxamide], the IC50 is more than 10000 nM.
Then `COc1cc(C(F)(F)F)c(C(=O)Nc2cc(-n3cc(C(=O)NCCCN4CCOCC4)nn3)c(F)cc2N2C[C@@H](C)N(C)[C@@H](C)C2)cn1` [Example 55], with 2820 nM; and `CN1CCN(c2cc(F)c(-n3cc(C(=O)NCCCN4CCOCC4)nn3)cc2NC(=O)c2c[nH]c(=O)cc2C(F)(F)F)CC1` [Example 8, N-(4-fluoro-2-(4-methylpiperazin-1-yl)-5-(4-((3-morpholinopropyl)carbamoyl)-1H-1,2,3-triazol-1-yl)phenyl)-6-oxo-4-(trifluoromethyl)-1,6-dihydropyridine-3-carboxamide], with 21.2 nM; and `CN1CCN(c2ccc(-n3cc(C(=O)NCCCN4CCOCC4)nn3)cc2NC(=O)c2cnc(C#N)cc2C(F)(F)F)CC1` [Example 13, 6-cyano-N-[2-(4-methylpiperazin-1-yl)-5-[4-(3-morpholinopropylcarbamoyl)triazol-1-yl]phenyl]-4-(trifluoromethyl)pyridine-3-carboxamide], with more than 10000 nM.
Then `C[C@@H]1CN(c2cc(F)c(-n3cc(C(=O)N4CCN(C)CC4)nn3)cc2NC(=O)c2cnc(Cl)cc2C(F)(F)F)C[C@H](C)N1C` [Example 51, 6-chloro-N-(4-fluoro-5-(4-(4-methylpiperazine-1-carbonyl)-1H-1,2,3-triazol-1-yl)-2-((3S,5R)-3,4,5-trimethylpiperazin-1-yl)phenyl)-4-(trifluoromethyl)nicotinamide], with 326 nM; and `CSc1cc(C(F)(F)F)c(C(=O)Nc2cc(-n3cc(C(=O)NCCCN4CCOCC4)nn3)ccc2N2CCN(C)CC2)cn1` [Example 14, N-[2-(4-methylpiperazin-1-yl)-5-[4-(3-morpholinopropylcarbamoyl)triazol-1-yl]phenyl]-6-methylsulfanyl-4-(trifluoromethyl)pyridine-3-carboxamide], with more than 10000 nM; and `CSc1ncc(C(=O)Nc2cc(-n3cc(C(=O)NCCCN4CCOCC4)nn3)ccc2N2CCN(C)CC2)c(C(F)(F)F)n1` [Example 27, N-(2-(4-methylpiperazin-1-yl)-5-(4-((3-morpholinopropyl)carbamoyl)-1H-1,2,3-triazol-1-yl)phenyl)-2-(methylthio)-4-(trifluoromethyl)pyrimidine-5-carboxamide], with more than 10000 nM.
With `CN1CCN(c2ccc(-n3cc(C(=O)NCCCN4CCOCC4)nn3)cc2NC(=O)c2ccc(C#N)nc2C(F)(F)F)CC1` [Example 39, 6-cyano-N-[2-(4-methylpiperazin-1-yl)-5-[4-(3-morpholinopropylcarbamoyl)triazol-1-yl]phenyl]-2-(trifluoromethyl)pyridine-3-carboxamide] the figure was 1150 nM; with `Cc1cc(N)ncc1C(=O)Nc1cc(-n2cc(C(=O)NCCCN3CCOCC3)nn2)ccc1N1CCN(C)CC1` [Example 24, 6-amino-4-methyl-N-(2-(4-methylpiperazin-1-yl)-5-(4-((3-morpholinopropyl)carbamoyl)-1H-1,2,3-triazol-1-yl)phenyl)nicotinamide], more than 10000 nM; with `C[C@@H]1CN(c2cc(F)c(-n3cc(C(=O)N4CCN(C)CC4)nn3)cc2NC(=O)c2cnc(Cl)cc2Cl)C[C@H](C)N1C` [Example 57, 4,6-dichloro-N-(4-fluoro-5-(4-(4-methylpiperazine-1-carbonyl)-1H-1,2,3-triazol-1-yl)-2-((3S,5R)-3,4,5-trimethylpiperazin-1-yl)phenyl)nicotinamide], 2170 nM.
`CN1CCN(c2ccc(-n3cc(C(=O)NCCCN4CCOCC4)nn3)cc2NC(=O)c2cnc(Cl)cc2C(F)(F)F)CC1` [Example 3, 6-chloro-N-(2-(4-methylpiperazin-1-yl)-5-(4-((3-morpholinopropyl)carbamoyl)-1H-1,2,3-triazol-1-yl)phenyl)-4-(trifluoromethyl)nicotinamide]: the half-maximal inhibitory concentration (IC50) is more than 10000 nM.
With `CN1CCN(c2ccc(-n3cc(C(=O)NCCCN4CCOCC4)nn3)cc2NC(=O)c2ccc(Cl)nc2C(F)(F)F)CC1` [Example 37, 6-chloro-N-(2-(4-methylpiperazin-1-yl)-5-(4-((3-morpholinopropyl)carbamoyl)-1H-1,2,3-triazol-1-yl)phenyl)-2-(trifluoromethyl)nicotinamide] the figure was 1960 nM.
Regarding `CN1CCN(c2ccc(-n3cc(C(=O)NCCCN4CCOCC4)nn3)cc2NC(=O)c2cc(C(F)(F)F)cc(C(F)(F)F)c2)CC1` [Example 47, 1-(3-(3,5-bis(trifluoromethyl)benzamido)-4-(4-methylpiperazin-1-yl)phenyl)-N-(3-morpholinopropyl)-1H-1,2,3-triazole-4-carboxamide], the IC50 came to 3520 nM.
With `COc1cnc(C(=O)Nc2cc(-n3cc(C(=O)NCCCN4CCOCC4)nn3)ccc2N2CCN(C)CC2)c(Cl)n1` [Example 35, 3-chloro-5-methoxy-N-(2-(4-methylpiperazin-1-yl)-5-(4-((3-morpholinopropyl)carbamoyl)-1H-1,2,3-triazol-1-yl)phenyl)pyrazine-2-carboxamide] the figure was more than 10000 nM; with `CN1CCN(c2ccc(-n3cc(C(=O)NCCCN4CCOCC4)nn3)cc2NC(=O)c2cnc(S(C)(=O)=O)cc2C(F)(F)F)CC1` [Example 15, N-[2-(4-methylpiperazin-1-yl)-5-[4-(3-morpholinopropylcarbamoyl)triazol-1-yl]phenyl]-6-methylsulfonyl-4-(trifluoromethyl)pyridine-3-carboxamide], more than 10000 nM; with `COc1cc(C(F)(F)F)c(C(=O)Nc2cc(-n3cc(C(=O)NC4CCN(C)CC4)nn3)c(F)cc2N2C[C@@H](C)N(C)[C@@H](C)C2)cn1` [Example 54, N-(4-fluoro-5-(4-((1-methylpiperidin-4-yl)carbamoyl)-1H-1,2,3-triazol-1-yl)-2-((3S,5R)-3,4,5-trimethylpiperazin-1-yl)phenyl)-6-methoxy-4-(trifluoromethyl)nicotinamide], 618 nM.
With `CN1CCN(c2ccc(-n3cc(C(=O)NCCCN4CCOCC4)nn3)cc2NC(=O)c2cnc(Cl)cc2N(C)C)CC1` [Example 23, 6-chloro-4-(dimethylamino)-N-[2-(4-methylpiperazin-1-yl)-5-[4-(3-morpholinopropylcarbamoyl)triazol-1-yl]phenyl]pyridine-3-carboxamide] the figure was more than 10000 nM; with `C[C@@H]1CN(c2cc(F)c(-n3cc(C(=O)NC4CCN(C)CC4)nn3)cc2NC(=O)c2cnc(Cl)cc2C(F)(F)F)C[C@H](C)N1C` [Example 52, 6-chloro-N-(4-fluoro-5-(4-((1-methylpiperidin-4-yl)carbamoyl)-1H-1,2,3-triazol-1-yl)-2-((3S,5R)-3,4,5-trimethylpiperazin-1-yl)phenyl)-4-(trifluoromethyl)nicotinamide], 287 nM; with `C[C@H]1CN(c2ccc(-n3cc(C(=O)NCCCN4CCOCC4)nn3)cc2NC(=O)c2cnc(Cl)cc2C(F)(F)F)CCN1C` [Example 9, (S)-6-chloro-N-(2-(3,4-dimethylpiperazin-1-yl)-5-(4-((3-morpholinopropyl)carbamoyl)-1H-1,2,3-triazol-1-yl)phenyl)-4-(trifluoromethyl)nicotinamide], more than 10000 nM.
Then `Cc1ncc(C(=O)Nc2cc(-n3cc(C(=O)NCCCN4CCOCC4)nn3)ccc2N2CCN(C)CC2)c(C(F)(F)F)n1` [Example 26, 2-methyl-N-(2-(4-methylpiperazin-1-yl)-5-(4-((3-morpholinopropyl)carbamoyl)-1H-1,2,3-triazol-1-yl)phenyl)-4-(trifluoromethyl)pyrimidine-5-carboxamide], with more than 10000 nM; and `CCOc1ncc(C(=O)Nc2cc(-n3cc(C(=O)NCCCN4CCOCC4)nn3)ccc2N2CCN(C)CC2)c(C(F)(F)F)n1` [Example 29, 2-ethoxy-N-(2-(4-methylpiperazin-1-yl)-5-(4-((3-morpholinopropyl)carbamoyl)-1H-1,2,3-triazol-1-yl)phenyl)-4-(trifluoromethyl)pyrimidine-5-carboxamide], with more than 10000 nM.
Take `COc1cc(C(F)(F)F)c(C(=O)Nc2cc(-n3cc(C(=O)NCCCN4CCOCC4)nn3)ccc2N2CCN(C)CC2)cn1` [Example 16, 6-methoxy-N-(2-(4-methylpiperazin-1-yl)-5-(4-((3-morpholinopropyl)carbamoyl)-1H-1,2,3-triazol-1-yl)phenyl)-4-(trifluoromethyl)nicotinamide]: the 50% inhibitory concentration (IC50) was more than 10000 nM.
On to `C[C@H]1CN(c2cc(F)c(-n3cc(C(=O)N4CCN(C)CC4)nn3)cc2NC(=O)c2cnc(Cl)cc2C(F)(F)F)C[C@H](C)N1C` [HYBI-284], for which the IC50 stood at 1270 nM.
With `CN1CCN(c2ccc(-n3cc(C(=O)NCCCN4CCOCC4)nn3)cc2NC(=O)c2cnc(Cl)cc2N)CC1` [Example 22, 4-amino-6-chloro-N-(2-(4-methylpiperazin-1-yl)-5-(4-((3-morpholinopropyl)carbamoyl)-1H-1,2,3-triazol-1-yl)phenyl)nicotinamide] the figure was more than 10000 nM; with `Cc1cc(C(F)(F)F)ncc1C(=O)Nc1cc(-n2cc(C(=O)NCCCN3CCOCC3)nn2)ccc1N1CCN(C)CC1` [Example 31, 4-methyl-N-(2-(4-methylpiperazin-1-yl)-5-(4-((3-morpholinopropyl)carbamoyl)-1H-1,2,3-triazol-1-yl)phenyl)-6-(trifluoromethyl)nicotinamide], more than 10000 nM.
Regarding `CN1CCN(c2ccc(-n3cc(C(=O)NCCCN4CCOCC4)nn3)cc2NC(=O)c2ccc(Cl)cc2C(F)(F)F)CC1` [Example 46, 1-(3-(4-chloro-2-(trifluoromethyl)benzamido)-4-(4-methylpiperazin-1-yl)phenyl)-N-(3-morpholinopropyl)-1H-1,2,3-triazole-4-carboxamide], the IC50 came to 458 nM.
